From PubChem BioAssay AID2060892 (Molecular Pharmacology Branch, DTP, NCI, 2025)

Tested on: HOP-62 complex spheroids with HUVEC/MSC, viability
Experiment: Anticancer human tumor HOP-62 cell line growth inhibition [RAS];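 also: spheroids exposed to agents for seven days before readout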;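 as to viability, T/C: 100% = DMSO vehicle control viability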
Conditions: for IC50: curve of first compound; for viability, T/C: stronger effect = lower value
In short: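 Tumour cells grown as complex spheroids with HUVEC endothelial cells and mesenchymal stem cells, treated with RAS pathway inhibitor combinations. Each agent spans half-log steps from near clinical Cmax, or 10 microM where Cmax is unknown.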

[1] = second compound 0.0316 µM, first compound 0.0316 µM
[2] = second compound 0.0316 µM, first compound 0.1 µM
[3] = second compound 0.0316 µM, first compound 0.316 µM
[4] = second compound 0.0316 µM, first compound 1 µM
[5] = second compound 0.0316 µM, first compound 3.16 µM
[6] = second compound 0.0316 µM, first compound 10 µM
[7] = second compound 0.1 µM, first compound 0.0316 µM
[8] = second compound 0.1 µM, first compound 0.1 µM
[9] = second compound 0.1 µM, first compound 0.316 µM
[10] = second compound 0.1 µM, first compound 1 µM
[11] = second compound 0.1 µM, first compound 3.16 µM
[12] = second compound 0.1 µM, first compound 10 µM
[13] = second compound 0.316 µM, first compound 0.0316 µM
[14] = second compound 0.316 µM, first compound 0.1 µM
[15] = second compound 0.316 µM, first compound 0.316 µM
[16] = second compound 0.316 µM, first compound 1 µM
[17] = second compound 0.316 µM, first compound 3.16 µM
[18] = second compound 0.316 µM, first compound 10 µM
[19] = second compound 1 µM, first compound 0.0316 µM
[20] = second compound 1 µM, first compound 0.1 µM
[21] = second compound 1 µM, first compound 0.316 µM
[22] = second compound 1 µM, first compound 1 µM
[23] = second compound 1 µM, first compound 3.16 µM
[24] = second compound 1 µM, first compound 10 µM
[25] = second compound 3.16 µM, first compound 0.0316 µM
[26] = second compound 3.16 µM, first compound 0.1 µM
[27] = second compound 3.16 µM, first compound 0.316 µM
[28] = second compound 3.16 µM, first compound 1 µM
[29] = second compound 3.16 µM, first compound 3.16 µM
[30] = second compound 3.16 µM, first compound 10 µM
[31] = second compound 10 µM, first compound 0.0316 µM
[32] = second compound 10 µM, first compound 0.1 µM
[33] = second compound 10 µM, first compound 0.316 µM
[34] = second compound 10 µM, first compound 1 µM
[35] = second compound 10 µM, first compound 3.16 µM
[36] = second compound 10 µM, first compound 10 µM

Compound: C[C@@H](NC(=O)c1ncnc(N)c1Cl)c1ncc(C(=O)Nc2cc(C(F)(F)F)c(Cl)cn2)s1 + C#Cc1c(F)ccc2cc(O)cc(-c3ncc4c(N5CC6CCC(C5)N6)nc(OCC56CCCN5CC(F)C6)nc4c3F)c12
- IC50 (second compound 0.0316 µM): > 10 µM
- IC50 (second compound 0.1 µM): > 10 µM
- IC50 (second compound 0.316 µM): > 10 µM
- IC50 (second compound 1 µM): > 10 µM
- IC50 (second compound 3.16 µM): > 10 µM
- IC50 (second compound 10 µM): 0.457 µM
- viability, T/C [1]: 109%
- viability, T/C [2]: 105%
- viability, T/C [3]: 101%
- viability, T/C [4]: 102%
- viability, T/C [5]: 92.6%
- viability, T/C [6]: 78.6%
- viability, T/C [7]: 110%
- viability, T/C [8]: 113%
- viability, T/C [9]: 105%
- viability, T/C [10]: 102%
- viability, T/C [11]: 96.8%
- viability, T/C [12]: 75.4%
- viability, T/C [13]: 114%
- viability, T/C [14]: 101%
- viability, T/C [15]: 96.6%
- viability, T/C [16]: 104%
- viability, T/C [17]: 97.6%
- viability, T/C [18]: 62.8%
- viability, T/C [19]: 117%
- viability, T/C [20]: 97.9%
- viability, T/C [21]: 91.1%
- viability, T/C [22]: 94.1%
- viability, T/C [23]: 88.6%
- viability, T/C [24]: 65.4%
- viability, T/C [25]: 83.2%
- viability, T/C [26]: 78.7%
- viability, T/C [27]: 77.1%
- viability, T/C [28]: 77.4%
- viability, T/C [29]: 73.4%
- viability, T/C [30]: 58.4%
- viability, T/C [31]: 51.9%
- viability, T/C [32]: 46.8%
- viability, T/C [33]: 54.1%
- viability, T/C [34]: 49.9%
- viability, T/C [35]: 43.4%
- viability, T/C [36]: 33.7%

Compound: CC(Nc1ccc2c(c1)OCCn1cc(N3C(=O)OCC3C(F)F)nc1-2)C(N)=O (stereo unspecified) + C#Cc1c(F)ccc2cc(O)cc(-c3ncc4c(N5CC6CCC(C5)N6)nc(OCC56CCCN5CC(F)C6)nc4c3F)c12
- IC50 (second compound 0.0316 µM): 1.33 µM
- IC50 (second compound 0.1 µM): 1.61 µM
- IC50 (second compound 0.316 µM): 1.02 µM
- IC50 (second compound 1 µM): 0.751 µM
- IC50 (second compound 3.16 µM): 0.0964 µM
- IC50 (second compound 10 µM): < 0.0316 µM
- viability, T/C [1]: 80.5%
- viability, T/C [2]: 69.2%
- viability, T/C [3]: 54.6%
- viability, T/C [4]: 59.8%
- viability, T/C [5]: 42.8%
- viability, T/C [6]: 32.9%
- viability, T/C [7]: 85.6%
- viability, T/C [8]: 78.5%
- viability, T/C [9]: 57%
- viability, T/C [10]: 58.4%
- viability, T/C [11]: 45.9%
- viability, T/C [12]: 32.8%
- viability, T/C [13]: 86.9%
- viability, T/C [14]: 68.9%
- viability, T/C [15]: 59.6%
- viability, T/C [16]: 52.9%
- viability, T/C [17]: 41.3%
- viability, T/C [18]: 31.4%
- viability, T/C [19]: 78.5%
- viability, T/C [20]: 67.4%
- viability, T/C [21]: 53.5%
- viability, T/C [22]: 50.6%
- viability, T/C [23]: 39.2%
- viability, T/C [24]: 28.4%
- viability, T/C [25]: 67.8%
- viability, T/C [26]: 41.7%
- viability, T/C [27]: 40%
- viability, T/C [28]: 32.3%
- viability, T/C [29]: 22.3%
- viability, T/C [30]: 15.1%
- viability, T/C [31]: 31.3%
- viability, T/C [32]: 22.8%
- viability, T/C [33]: 19.2%
- viability, T/C [34]: 17.3%
- viability, T/C [35]: 12.6%
- viability, T/C [36]: 10.2%

Compound: Nc1ccn(C2OC(CO)C(O)C2(F)F)c(=O)n1 (stereo unspecified) + C=CC(=O)N1CCN(c2nc(OCC3CCCN3C)nc3c(F)c(-c4nc(N)cc(C)c4C(F)(F)F)c(Cl)cc23)C(C)C1
- IC50 (second compound 0.00316 µM): 0.00479 µM
- IC50 (second compound 0.01 µM): 0.004 µM
- IC50 (second compound 0.0316 µM): 0.0038 µM
- IC50 (second compound 0.1 µM): 0.00357 µM
- IC50 (second compound 0.316 µM): 0.00388 µM
- IC50 (second compound 1 µM): 0.00332 µM
- viability, T/C (second compound 0.00316 µM, first compound 0.00316 µM): 71.5%
- viability, T/C (second compound 0.00316 µM, first compound 0.01 µM): 11.7%
- viability, T/C (second compound 0.00316 µM, first compound 0.0316 µM): 4.51%
- viability, T/C (second compound 0.00316 µM, first compound 0.1 µM): 3.58%
- viability, T/C (second compound 0.00316 µM, first compound 0.316 µM): 3.88%
- viability, T/C (second compound 0.00316 µM, first compound 1 µM): 4.22%
- viability, T/C (second compound 0.01 µM, first compound 0.00316 µM): 61%
- viability, T/C (second compound 0.01 µM, first compound 0.01 µM): 7.13%
- viability, T/C (second compound 0.01 µM, first compound 0.0316 µM): 4.46%
- viability, T/C (second compound 0.01 µM, first compound 0.1 µM): 3.64%
- viability, T/C (second compound 0.01 µM, first compound 0.316 µM): 3.98%
- viability, T/C (second compound 0.01 µM, first compound 1 µM): 4.49%
- viability, T/C (second compound 0.0316 µM, first compound 0.00316 µM): 57.3%
- viability, T/C (second compound 0.0316 µM, first compound 0.01 µM): 11.7%
- viability, T/C [1]: 4.71%
- viability, T/C [2]: 4.6%
- viability, T/C [3]: 4.09%
- viability, T/C [4]: 3.59%
- viability, T/C (second compound 0.1 µM, first compound 0.00316 µM): 54.7%
- viability, T/C (second compound 0.1 µM, first compound 0.01 µM): 10.5%
- viability, T/C [7]: 3.96%
- viability, T/C [8]: 3.63%
- viability, T/C [9]: 4.57%
- viability, T/C [10]: 3.1%
- viability, T/C (second compound 0.316 µM, first compound 0.00316 µM): 58.8%
- viability, T/C (second compound 0.316 µM, first compound 0.01 µM): 9.95%
- viability, T/C [13]: 5.61%
- viability, T/C [14]: 4.79%
- viability, T/C [15]: 5.44%
- viability, T/C [16]: 3.53%
- viability, T/C (second compound 1 µM, first compound 0.00316 µM): 51.9%
- viability, T/C (second compound 1 µM, first compound 0.01 µM): 6.83%
- viability, T/C [19]: 4.34%
- viability, T/C [20]: 3.74%
- viability, T/C [21]: 4.68%
- viability, T/C [22]: 3.28%
